# A melting point compilation (Tetko et al.; mined from patent text by program, amines drawn as free bases though some values may be those of a salt)
row,Compound,melting point [°C]
1,NCC1Cc2cccc(-c3cc(Cl)cc(Cl)c3)c2O1 (stereo unspecified),165 to 168
2,Cc1nc(C)c(Cn2nnnc2-c2cccc(Cl)c2Cl)s1,174 to 175
3,CC(C)N1CCC(COc2ncc(C(=O)c3ccc(Cl)cc3)n2C)CC1,126 to 127
4,CC(=O)NC[C@H]1CN(c2ccc(N3C[C@H]4CN(C(=O)COCc5ccccc5)C[C@H]4C3)c(F)c2)C(=O)O1,138 to 140
5,Cc1ccc(-c2ccc(C(=O)Nc3ccc4nc(CN(C(C)C)C(C)C)ccc4c3)cn2)cc1,211 to 213
6,COc1ccc(COc2cccc(OC)c2C(C)=O)cc1,105 to 107
7,CCCCC[C@H]1CC[C@H](CCC2CCC(c3ccc(Oc4ccc(N)cc4)cc3)(c3ccc(Oc4ccc(N)cc4)cc3)CC2)CC1,171 to 172
8,CC(C)OCc1cc2ccccc2oc1=Nc1ccccc1,107 to 108
9,COc1cccc2c1CCCC2=NNc1nc(-c2ccc(F)cc2)cs1,198
10,CCN1C(=O)CN(C(=O)OCc2ccccc2)Cc2cc(OC)c([N+](=O)[O-])cc21,55 to 56
11,CCOC(=O)c1sc(N2CCNC2=O)nc1C(F)(F)F,185 to 187
12,CC(C)c1ccc(OCCCN2CCN(c3ccc(Cl)nn3)CC2)cc1,125 to 127
13,O=S(=O)(NC(=NO)Nc1ccc(Cl)cc1)c1cc(S(=O)(=O)c2ccccc2)cs1,195
14,O=C1CCC(N2Cc3cc(CNC(=O)Nc4c(Cl)cccc4Cl)ccc3C2=O)C(=O)N1 (stereo unspecified),238 to 240
15,OC(CNC1CC1)c1cccc(Cl)c1 (stereo unspecified),71.3 to 73.2
16,CCCc1c(C#N)c(-c2ccc(C#N)cc2)c(C)n1Cc1cnc(Cl)c(CO)c1,137 to 138
17,O=[N+]([O-])c1cc(Br)cc(Br)c1,102 to 104
18,Nc1ccc(-n2nnn(CCCC3CCCCC3)c2=O)cc1,64 to 69
19,COc1cc2cc(C(=O)N3CC(CCl)c4c3cc(N)c3ncccc43)[nH]c2c(OC)c1OC (stereo unspecified),225 to 227
20,Cc1ccnc2c1nc(-c1cccnc1N)n2-c1ccc(CC(=O)Nc2cccc(F)c2)cc1,241 to 243
21,O=C(O)c1cn(C2CC2)c2c(C(F)(F)F)c(N3CCC(c4ccncc4)C3)c(F)cc2c1=O (stereo unspecified),244 to 245
22,CCCC(NS(=O)(=O)c1ccccc1)P(=O)(Oc1ccccc1)Oc1ccccc1 (stereo unspecified),173 to 175
23,CCOC(=O)c1ccc2nc(C)n(Cc3ccccc3Cl)c2c1,126 to 127
24,C=CCONC(=O)c1nc(-c2ccc(Cl)c(OC)c2F)nc(N)c1OC,148 to 150

row,Compound,melting point [°C]
1,O=C(Nc1cccc(Cl)c1)NC1CC(C2CCCCC2)c2ccccc2NC1=O (stereo unspecified),222 to 225
2,CSc1nc(O)cc(OC(F)F)n1,236 to 237
3,COc1ccc(CNn2nnc3c(Cl)ncnc32)cc1,110 to 112
4,COC(=O)c1nsc2ccc(-n3c(=O)cc(C(F)(F)F)n(C)c3=O)cc12,153 to 156
5,O=C1c2ccccc2C(=O)N1CCNCCCO,94 to 95
6,Cc1n[nH]c2cc(F)ccc12,116 to 117
7,CC(N)=CC(=O)NC1CCCC1,138 to 139
8,CCCNC(=O)n1nc(Oc2c(Cl)cc(C(F)(F)F)cc2[N+](=O)[O-])cc1C,111 to 113
9,CC(=O)N[C@@H](C)COc1cc2oc(-c3ccc(OC[C@H]4CC4(F)F)cc3)nc2cn1,205
10,CC(=S)Nc1ccc(-c2nc3ccccc3s2)cc1,222 to 223
11,COc1ccccc1Oc1c(NS(=O)(=O)c2ccc(C(C)(C)C)cc2)nc(-c2ncccn2)nc1OCCOc1ccc(Br)cc1,251 to 256
12,Nc1cc(Cl)cc(C(F)(F)F)c1N,53
13,CCOc1ccc(-c2nc3c4ccccc4ccc3n2C)cc1,138 to 139
14,Cc1ccn(-c2ccc(C(=O)N3Cc4ccc(C)n4Cc4ccccc43)c(Cl)c2)n1,178 to 180
15,CCCN1N=C2C(=Cc3ccc(OC)cc3)CSCC2C1c1ccc(OC)cc1 (stereo unspecified),150 to 152
16,CC(C)(C)N(C(=O)C(O)(C(=O)O)c1ccccc1)C(C)(C)C (stereo unspecified),99 to 100
17,CCOC(=O)Cc1cccc(C(=O)c2ccccc2)c1NC(C)=O,133 to 134
18,O=c1c2cc(F)c(F)cc2nc(C(S)c2ncnc3[nH]cnc23)n1-c1ccccc1Cl (stereo unspecified),208
19,O=CCCOC(c1ccccc1)(c1ccccc1)c1ccccc1,97 to 98
20,COc1cc(C=CC(=O)CSc2ccccc2)ccc1O,78 to 80
21,CC1(C)OC(=S)Nc2ccc(-c3ccc(C#N)o3)cc21,200
22,COc1ccc(CC(NC(=O)OCc2ccccc2)C(=O)C=[N+]=[N-])cc1 (stereo unspecified),88 to 90
23,CC(C)C1(C)N=C(c2ncc(C=O)cc2C(=O)O)NC1=O (stereo unspecified),187 to 198
24,CNC1(c2ccc(C#CC(=O)Nc3ccc(-c4ccc(Cl)cc4)cc3)cc2)CC1,217

row,Compound,melting point [°C]
1,CCCCCNC(=N)NC(N)=S,98 to 100
2,Cc1nc(NC(=O)c2cnn3c(C(F)(F)F)cc(-c4ccc(C(F)(F)F)cc4)nc23)sc1S(=O)(=O)N1CCC(O)C1 (racemic),300
3,CC(=O)Nc1nc(NC(C)=O)nc(C2CCC(c3ccccc3)CC2)n1 (stereo unspecified),235 to 236
4,N#Cc1ccc(NC(=O)[C@H](CC(=O)O)NCc2ccccc2)cc1,178
5,CCCCCCCCOC(=O)CCP(=O)(CCC(N)=O)Cc1cc(C(C)(C)C)c(O)c(C(C)(C)C)c1 (stereo unspecified),154 to 157
6,Cn1c(C(N)=O)nc([N+](=O)[O-])c1C#N,265 to 267
7,Cc1ccc(C=CC(=O)C(CCC(=O)O)(Cc2ccccc2Cl)c2ccccc2)cc1 (stereo unspecified),120 to 147
8,CCOC(=O)[C@@H]1C[C@H](C(=O)O)Nc2cc(Cl)cc(Cl)c21 (relative stereo),160 to 162
9,Cn1c(C(F)(F)F)cc(=O)n(-c2cc(OCc3ccccc3)c(Cl)cc2F)c1=O,129 to 131
10,CCCOc1cccc(Oc2ccc3c(c2)C=C(C(=O)Nc2ccc(CN(C)C4CCOCC4)cc2)CCS3(=O)=O)c1,143 to 144
11,NC(=O)c1c(N)sc2ccccc2c1=O,277 to 279
12,CCN(CC)Cc1cccn1N(C)c1ccnc2cc(C(F)(F)F)ccc12,64 to 66
13,COc1nc(OC)c(C(C)C)c(C(C#N)c2cc(Cl)cc(Cl)c2)n1 (stereo unspecified),135 to 136
14,CCCC(=O)c1c[nH]c2ccc(OC)cc2c1=O,252 to 254
15,COc1cc(C(=O)CBr)cc(C#N)c1OC,138 to 141
16,COCCc1ccc(OCC(O)CO)cc1 (stereo unspecified),25
17,Nc1nccc2occc12,122 to 124
18,N[C@@H](Cc1ccc(C(F)(F)F)c(F)c1)[C@H](O)c1ccc(F)cc1 (racemic),86 to 87
19,C=CC1(CC)OC(=O)c2ccc(Oc3ccc(C(F)(F)F)cc3Cl)cc21 (stereo unspecified),77 to 79
20,C#CCN(C)C(=O)N1CC(Oc2cccc(C(F)(F)F)c2)C1,71 to 73
21,Cc1c(C2=CCC(Cc3ccccc3)(N(C)C)CC2)[nH]c2ccc(C#N)cc12 (stereo unspecified),120 to 123
22,Cc1ccccc1Oc1cccc2c1OC(=O)C2,110 to 111

# Now from value to compound:
row,melting point [°C],Compound
1,> 315,Nc1nc2c(ncn2OCC(O)CCP(=O)(O)O)c(=O)[nH]1 (stereo unspecified)
2,111,CCC(=O)C1c2cccc(O)c2C(=O)c2c(OC(=O)C(C)C)cccc21 (stereo unspecified)
3,102 to 104,O=C(O)Cc1ccc(Cl)cc1OCCc1ccccc1
4,80 to 82,CCCCOC(=O)NCc1cccc(C(=O)C=CN(C)C)c1
5,164 to 165,COC(=O)c1ccc(/C=C/c2nc(-c3ccccc3)oc2C)cc1
6,156 to 158,CCOCc1nc2c(N)nc(C)c(C)c2n1CCCC(=O)N1CCOCC1
7,51 to 53,CCC1(CC)NC(C)(COC(=O)C(C)(C)C)COC1=O (stereo unspecified)
8,159 to 161,COC(=O)c1cccc2nc(SCCN3CCN(CC(=O)Nc4c(C(C)C)cccc4C(C)C)CC3)oc12
9,126 to 128,CCOC(=O)c1cnc2c(cnn2CC)c1Nc1ccccc1N
10,230,O=C(O)c1cnn(O)c1
11,155 to 156,O=C(Nc1ccsc1)c1ccccc1
12,159 to 161,NC(=S)N1CCC(c2cccc(C(F)(F)F)c2)=N1
13,125 to 140,Nc1cccc(-c2ccc(CCCN3CCN(CCc4ccccc4)CC3)cc2)n1
14,105 to 106,COc1cc(-c2nc(C)cs2)cc(OC)c1OC
15,53.5,O=C(CO)Cc1ccc(Cl)cc1
16,135 to 138,COc1cccc(C2(C(N)=O)CCC3(CC2)OCCO3)c1

row,melting point [°C],Compound
1,90 to 93,CCCOc1ccc2c(c1)C(=O)C=C2c1ccc2c(c1)OCO2
2,152 to 153,CCN1C(=O)C(=O)N(c2cc(F)ccc2C)C1=S
3,163,CN1C(=O)C(C)(Cc2ccccc2)N(C)C(=O)C1=Cc1cccnc1C#N (stereo unspecified)
4,149,Fc1cc(Nc2ccc(Oc3ccccc3)cc2)ccn1
5,276 to 279,O=c1[nH]c2cc(Cl)cc(Cl)c2c(=O)n1Cc1cccc(Cl)c1
6,160 to 162,CC(C)CN(C)C1=NS(=O)(=O)c2cccc(Cl)c21
7,99 to 108,Cc1ccc2occ(-c3ccccc3)c2c1
8,63 to 64,CN(Cc1ccco1)Cn1c(Cl)c(C#N)c(-c2cccc(Cl)c2F)c1-c1ccccc1
9,140 to 141,CCOC(=O)Cc1ccc(-c2nc(COc3ccc(COc4nn(-c5ccccc5)cc4/C=C\c4cnn(CC)c4)cc3OC)c(C)o2)cc1
10,152 to 165,Cc1ccc(-c2csc3nc(C)c(CCCl)c(=O)n23)cc1
11,149 to 153,Cc1ccc2c(c1)c1c(n2C(=O)c2ccccc2)CCCC1C(=O)O (stereo unspecified)
12,158 to 160,Cc1cc(-c2cn(-c3cccc(OCCn4ccnc4)c3)c3ncnc(N)c23)ccc1OCc1ccccc1
13,204 to 205,O=C(O)CCc1cc(C=Nc2ccccc2O)c(O)c(C=Nc2ccccc2O)c1
14,156 to 157,CC(C)n1nc(-c2c(-c3ccccc3)nn3ccc(C(=O)NCCOc4ccccc4)cc23)ccc1=O
15,89 to 92,CCCCCCCCCCCCCCCc1cc2cc(C(=O)OC)ccc2[nH]1
